Experimental data as given in patent US11590133B2, “Methods and compositions for treatment of BRAF mutant cancers” (MEMORIAL SLOAN KETTERING CANCER CENTER, priority 2016, dated 2023).

Tests used:
[1] = tested on: BRAFV600E-mutant lung cancer patient-derived xenografts (PDX); assay: ERK inhibitor monotherapy of lung cancer PDX, tumor growth; assay type: in vivo, mice; settings: SCH984 75 mpk; FIG. 1B
From the text: These were established as described^38,39, in accordance with the Memorial Sloan Kettering Cancer Center Institutional Review Board. Informed consent was obtained in all cases. All animal studies were done in accordance with protocols approved by the MSKCC Animal Care and Use Committee. Melanoma models were generated previously40. Patient derived tissue (biopsy or surgical resection) or pleural fluid was used to establish the lung cancer models in Table I. For biopsy or resection specimens, the tumor sample was minced under aseptic conditions, vigorously washed in 1×PBS, passed through a 60-μm filter, centrifuged, and then re-suspended in 500 μL of Matrigel (BD Biosciences) at 4° C. For pleural effusions, the fluid was centrifuged in order to isolate the cellular fraction and washed several times in cold PBS. Cells were then injected subcutaneously in the flanks of NSG mice and monitored for tumor growth. […]
Nu/nu athymic or NSG mice were obtained from the Harlan Laboratories and maintained in compliance with IACUC guidelines. […] Doubling times were calculated by fitting tumor volumes into exponential growth curves and determining their rate constants in Prism. […] Statistically significant differences in rate constants were determined by using the extra-sum-of-squares F test (with p<0.05) embedded in Prism. […]

ERK = settings: cited from earlier work

CS[C@@]1(C(=O)Nc2ccc3[nH]nc(-c4ccc(OC(C)C)nc4)c3c2)CCN(CC(=O)N2CC=C(c3ccc(-c4ncn(C)n4)cc3)CC2)C1 [SCH984]
PDX tested in which growth was inhibited [1]: 3/4 | duration of response [1]: several weeks | effect on ERK kinase activity and ERK phosphorylation by MEK (ERK; ATP-competitive inhibitor): inhibits the kinase activity of ERK and prevents its phosphorylation by MEK | preference for phosphorylation state of ERK (ERK): preferentially targets unphosphorylated ERK
